In US6313090A, “Methods for treating parasitic infection using thiopeptides” (The United States of America as represented by the …, priority 2000, dated 2001):

How the values were obtained:
[1] = tested on: P. falciparum (strain 3D7); assay: Assay of growth inhibition, [3H]hypoxanthine incorporation; format: cell-based
Protocol: (§1) Assay of Growth inhibition. Thiostrepton (1525 u/mg; Calbiochem) and anisomycin (Sigma) were dissolved at 100 mM in DMSO (Pierce). P. falciparum (strain 3D7) (44) was maintained in culture with human erythrocytes (5% hematocrit) in RPMI-1640 (Life Technologies) supplemented with HEPES and sodium bicarbonate and human sera (10%) under standard conditions (18,19). The growth inhibition assay was conducted as described (20). Briefly, the parasitemia was adjusted to 0.1% parasitemia, 2.5% hematocrit and 200 μl aliquots placed in wells of a microtitre dish. Serial dilutions of drugs were made in RPMI. Thiostrepton was diluted to 10 mM in DMSO before the serial dilutions in RPMI. Aliquots (20 μl) were added in triplicate to the cultures in the microtitre plate, mixing well. At the highest concentrations (final 0.2mM), thiostrepton precipitates. After incubation for 48 hours under standard conditions, [2,8-^3 H]-hypoxanthine Moravek Biochemicals, 12.5 Ci/mmol) in RPMI (20 μl, 0.05 mCi/ml) was added to each well. After incubation for a further 24 hours, the cultures were lysed and incorporated radioactivity was measured with an automated counter.
Assay of inhibition. The effect of thiostrepton on growth and protein synthesis of P. falciparum was compared to anisomycin, since the effect of both of these drugs is on protein synthesis. To assay the effect of thiostrepton and anisomycin on the growth of P. faciparum, inhibition of the uptake and incorporation of [^3 H]hypoxanthine was quantitated at serial dilutions of the drugs on an in vitro culture of P. falciparum. […] Inhibition of the incorporation of [^3 H]leucine was also tested at the same dilutions of the drugs. For anisomycin, total protein synthesis was inhibited 50% at the IC50 (0.511 μM) for inhibition of growth, with the concentration-response almost superimposable on that of protein synthesis. […] This would occur if organelle protein synthesis was the target of inhibition (29,30).

[2] = tested on: rpoB/C mRNA encoded by the 35-kb plastid-like organelle genome; format: cell-based, P. falciparum
Protocol: As of organelle and cyloplasmic transcript levels. RNA polymerase transcript levels were assessed by comparing the amounts of RNA synthesized at timepoints following drug treatment. Cultures of P. falciparum (3.2% parasitemia, 5% hematocrit) were treated with thiostrepton at 8 μM and rifampin (Sigma) at 80 μM; near the IC99 values (this study and ref. 22). Aliquots (5 ml) of treated and control cultures were removed and immediately processed for RNA with a guanidinium thiocyanate solution, according to the manufacturer's directions (RNAgents, Promega). All RNA samples were dissolved in 50 μl DEPC-treated water, DNase I treated as previously described (23) and an aliquot (1 μl) was removed for RT-PCR First strand synthesis of cDNA was completed with a random hexamer (Superscript Preamplification System, Life Technologies). One-tenth of the CDNA product was utilized for PCR of rpoB/C, MSA1, and rRNA. Primers corresponding to the 3' region of rpoB, 5'-GGGCTTTAGAAGCTTTTGG-3' (SEQ ID NO:1), and the 5' region of rpoC, 5'-[…]-3' (SEQ ID NO:2) were applied as described (2,3) for PCR of nascent rpoB/C transcripts. Reactions were cycled with the following parameters: 94° C./30 seconds, 42° C./30 seconds, 72° C./60 seconds, 35 cycles. Primers for amplification of nucleotide 64 to 614 of MSA1 with 5'-GTGTGATAATATTCATGG-3' (SEQ ID NO:3) and 5'-GGAGAGCATTTGGTG-3' (SEQ ID NO:4)(24) and the small subunit rRNA with oligonucleotides 841 and 844 (23) were used for amplification reactions following the parameters in the respective references except with 35 cycles. Samples were also analyzed after 25 cycles of amplification to ensure detection in the linear range of the amplification reaction, with similar results. Following electrophoresis of aliquots from the amplification reactions on 1% agarose:TBE gels, samples were transferred to nylon membranes (GeneScreen Plus, DuPont) and hybridized as described (25). The amplification products were probed with 5'-^32 P-labeled oligonucleotides. The rpoB/C products were probed with 5'-[…]-3' (SEQ ID NO:5) (nucleotide 2009-2030 of rpoB) and 5'-CGGAGAGGTATTAATACC-3' (SEQ ED NO:6) (nucleotide 108-125 of rpoC), in 5×SSC, 10 mM sodium phosphate, 0.05% sodium pyrophosphate, 1% sodium dodecyl sulfate, 5×Denhardt's solution, 100 μg/ml yeast tRNA, 42° C. and washed in the hybridization solution lacking Denhardt's and tRNA at 37° C., three times. The final wash was 1×SSC, 0.5% sodium dodecyl sulfate, 42° C. followed by autoradiography. The same results were obtained with either probe. The MSA1 amplification products were similarly probed with 5'-[…]-3' (SEQ ID NO:7) and the rRNA products with oligonucleotide 842 (23).
The target of inhibition by thiostrepton. […]

[3] = Precipitation seen in culture medium of the growth assay; format: physicochemical; details: highest concentrations (final 0.2mM) in culture
Protocol: as §1

C=C(NC(=O)C(=C)NC(=O)c1csc(C2=N[C@@H]3c4csc(n4)[C@H]4NC(=O)c5csc(n5)[C@H]([C@](C)(O)[C@@H](C)O)NC(=O)[C@H]5CSC(=N5)/C(=C/C)NC(=O)[C@H]([C@@H](C)O)NC(=O)c5csc(n5)[C@]3(CC2)NC(=O)[C@H](C)NC(=O)C(=C)NC(=O)[C@H](C)NC(=O)[C@H]([C@@H](C)CC)N[C@@H]2C=Cc3c([C@H](C)O)cc(nc3[C@H]2O)C(=O)O[C@@H]4C)n1)C(N)=O [Thiostrepton, thiostrepton]
IC50 ([1]; Plasmodium falciparum, 3D7, in vitro culture, [3H]hypoxanthine uptake and incorporation): 1800 nM | IC99 (near) ([1]; concentration used, near the IC99 value, this study): ~8 µM | decay of mRNA corresponding to rpoB/C, time of drug treatment ([2]; thiostrepton at 8 μM, rifampin at 80 μM): ≤ 6 h | decline of the rpoB/C product with time ([2]; time course, 8 μM): notable affect after only one hour of treatment | effect on levels of nuclear-encoded MSA mRNA and total rRNA ([2]; within the duration of the experiment (8 hours), 8 μM): no effect | precipitation [3]: precipitates
